Assay results: US7517874B2 (priority 2007, dated 2009)
Where two headings read alike, the source gives them in different places.

Columns and labels:
rat CB2 receptor (rCB2) = molecular target: T1, rat CB2 receptor (rCB2) (Rattus norvegicus, UniProt Q9QZN9); assay: cell-based; format: cell-based; settings: for +/− RCB2: agonist or inverse agonist at rCB2
T1 sequence (Q9QZN9 1-360): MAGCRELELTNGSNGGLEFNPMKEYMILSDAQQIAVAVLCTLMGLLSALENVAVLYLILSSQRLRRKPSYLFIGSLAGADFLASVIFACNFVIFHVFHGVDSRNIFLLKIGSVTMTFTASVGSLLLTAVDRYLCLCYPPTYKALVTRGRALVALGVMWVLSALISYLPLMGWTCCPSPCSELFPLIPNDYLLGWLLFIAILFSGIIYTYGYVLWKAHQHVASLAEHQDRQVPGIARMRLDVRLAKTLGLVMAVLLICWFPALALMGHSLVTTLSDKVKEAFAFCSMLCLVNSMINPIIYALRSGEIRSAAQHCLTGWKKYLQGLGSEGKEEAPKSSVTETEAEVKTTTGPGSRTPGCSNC
How it was run: (§1)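 Readout: LANCE TR-FRET cAMP, back-calculated from a concurrent standard curve and scaled between forskolin-only and forskolin + 1 μM CP55,940 wells. EC50 and intrinsic activity came from four-parameter fits.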

[1] = molecular target: human CB1 receptor (hCB1) (Homo sapiens, UniProt P21554); assay: cell-based; format: cell-based
human CB1 receptor (hCB1), sequence (P21554 whole entry): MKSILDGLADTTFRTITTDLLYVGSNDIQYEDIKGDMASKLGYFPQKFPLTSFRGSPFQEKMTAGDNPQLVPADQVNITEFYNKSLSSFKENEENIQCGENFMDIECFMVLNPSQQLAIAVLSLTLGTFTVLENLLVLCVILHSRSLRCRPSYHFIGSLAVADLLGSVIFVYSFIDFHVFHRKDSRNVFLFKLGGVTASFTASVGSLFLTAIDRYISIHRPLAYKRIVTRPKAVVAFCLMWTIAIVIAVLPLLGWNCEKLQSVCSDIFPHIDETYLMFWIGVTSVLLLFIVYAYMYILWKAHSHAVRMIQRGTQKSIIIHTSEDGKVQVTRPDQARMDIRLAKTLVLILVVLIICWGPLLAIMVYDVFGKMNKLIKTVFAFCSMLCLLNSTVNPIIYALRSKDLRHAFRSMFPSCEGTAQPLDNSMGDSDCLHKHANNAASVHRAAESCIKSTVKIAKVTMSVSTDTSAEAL
How it was run: as §1

[2] = groups >100 nM-10 μM and >10 μM, cAMP, CHO-K1 rCB2, read-out: EC50 RCB2
[3] = groups >100 nM-10 μM and >10 μM, cAMP, CHO-K1 hCB1, read-out: EC50 HCB1

## CCCNC(=O)N1CCn2c(-c3ccccc3)nc(C(=O)N[C@H](C(=O)NC)C(C)(C)C)c2C1 [Compound 193, (S)-N1-(3,3-dimethyl-1-(methylamino)-1-oxobutan-2-yl)-3-phenyl-N7-propyl-5,6-dihydroimidazo[1,5-a]pyrazine-1,7(8H)-dicarboxamide]
Rat CB2 receptor (rCB2)
  +/− RCB2: −
[1]
  EC50: > 10000 nM

## CNC(=O)[C@@H](NC(=O)c1nc(-c2ccccc2)n2c1CN(C(=O)Nc1ccccc1)CC2)C(C)(C)C [Compound 194, (S)-N1-(3,3-dimethyl-1-(methylamino)-1-oxobutan-2-yl)-N7,3-diphenyl-5,6-dihydroimidazo[1,5-a]pyrazine1,7-(8H)-dicarboxamide]
Rat CB2 receptor (rCB2)
  EC50: > 10000 nM
[1]
  EC50: > 10000 nM

## CCCNC(=S)N1CCn2c(-c3ccccc3)nc(C(=O)N[C@H](C(=O)NC)C(C)(C)C)c2C1 [Compound 195, (S)-N-(3,3-dimethyl-1-(methylamino)-1-oxobutan-2-yl)-3-phenyl-7-(propylcarbamothioyl)-5,6,7,8-tetrahydroimidazo[1,5-a]pyrazine-1-carboxamide]
Rat CB2 receptor (rCB2)
  +/− RCB2: −
[1]
  EC50: > 10000 nM

## CN(C)C(=O)[C@@H](NC(=O)c1nc(-c2ccccc2)n2c1CNCC2)C(C)(C)C [Compound 196, (S)-N-(1-(dimethylamino)-3,3-dimethyl-1-oxobutan-2-yl)-3-phenyl-5,6,7,8-tetrahydroimidazo[1,5-a]pyrazine-1-carboxamide]
Rat CB2 receptor (rCB2)
  +/− RCB2: −
[1]
  EC50: > 10000 nM

## CNC(=O)[C@@H](NC(=O)c1nc(-c2ccccc2)n2c1CN(C1CC1)CC2)C(C)(C)C [Compound 197, (S)-7-cyclopropyl-N-(3,3-dimethyl-1-(methylamino)-1-oxobutan-2-yl)-3-phenyl-5,6,7,8-tetrahydroimidazo[1,5-a]pyrazine-1-carboxamide]
Rat CB2 receptor (rCB2)
  +/− RCB2: −
[1]
  EC50: > 10000 nM

## Cc1noc([C@@H](NC(=O)c2nc(-c3ccccc3)n3c2CN(C2CC2)CC3)C(C)(C)C)n1 [Compound 198, (S)-7-cyclopropyl-N-(2,2-dimethyl-1-(3-methyl-1,2,4-oxadiazol-5-yl)propyl)-3-phenyl--5,6,7,8-tetrahydroimidazo[1,5-a]pyrazine-1-carboxamide]
Rat CB2 receptor (rCB2)
  +/− RCB2: −
[1]
  EC50: > 10000 nM

## CNC(=O)[C@@H](NC(=O)c1nc(-c2ccccc2)n2c1CN(C1CC1)CCC2)C(C)(C)C [Compound 199, (S)-8-cyclopropyl-N-(3,3-dimethyl-1-(methylamino)-1-oxobutan-2-yl)-3-phenyl-6,7,8,9-tetrahydro-5H-imidazo[1,5-a][1,4]diazepine-1-carboxamide]
Rat CB2 receptor (rCB2)
  +/− RCB2: +
[1]
  EC50: > 10000 nM

## Cc1nnc([C@@H](NC(=O)c2nc(-c3ccccc3)n3c2CNCC3)C(C)(C)C)o1 [Compound 200, (S)-N-(2,2-dimethyl-1-(5-methyl-1,3,4-oxadiazol-2-yl)propyl)-3-phenyl-5,6,7,8-tetrahydroimidazo[1,5-a]pyrazine-1-carboxamide]
Rat CB2 receptor (rCB2)
  +/− RCB2: +
[1]
  EC50: > 10000 nM

## Cc1nnc([C@@H](NC(=O)c2nc(-c3ccccc3)n3c2CN(C)CC3)C(C)(C)C)o1 [Compound 201, (S)-N-(2,2-dimethyl-1-(5-methyl-1,3,4-oxadiazol-2-yl)propyl)-7-methyl-3-phenyl-5,6,7,8-tetrahydroimidazo[1,5-a]pyrazine-1-carboxamide]
Rat CB2 receptor (rCB2)
  +/− RCB2: +
[1]
  EC50: > 10000 nM

## Cc1nnc([C@@H](NC(=O)c2nc(-c3ccccc3)n3c2CN(CC(C)C)CC3)C(C)(C)C)o1 [Compound 202, (S)-N-(2,2-dimethyl-1-(5-methyl-1,3,4-oxadiazol-2-yl)propyl)-7-isobutyl-3-phenyl-5,6,7,8-tetrahydroimidazo[1,5-a]pyrazine-1-carboxamide]
Rat CB2 receptor (rCB2)
  +/− RCB2: −
[1]
  EC50: > 10000 nM

## CNC(=O)[C@@H](NC(=O)c1nc(C#Cc2ccccc2)n2c1CN(C)CC2)C(C)(C)C [Compound 204, (S)-N-(3,3-dimethyl-1-(methylamino)-1-oxobutan-2-yl)-7-methyl-3-(phenylethynyl)-5,6,7,8-tetrahydroimidazo[1,5-a]pyrazine-1-carboxamide]
Rat CB2 receptor (rCB2)
  EC50: > 10000 nM
[1]
  EC50: > 10000 nM

## CNC(=O)[C@@H](NC(=O)c1nc(C#Cc2cccnc2)n2c1CN(C)CC2)C(C)(C)C [Compound 205, (S)-N-(3,3-dimethyl-1-(methylamino)-1-oxobutan-2-yl)-7-methyl-3-(pyridin-3-ylethynyl)-5,6,7,8-tetrahydroimidazo[1,5-a]pyrazine-1-carboxamide]
Rat CB2 receptor (rCB2)
  EC50: > 10000 nM
[1]
  EC50: > 10000 nM

## CNC(=O)[C@@H](NC(=O)c1nc(-c2ccccc2)n2c1CN(C)CC2)C(C)C [Compound 206, (S)-7-methyl-N-(3-methyl-1-(methylamino)-1-oxobutan-2-yl)-3-phenyl-5,6,7,8-tetrahydroimidazo[1,5-a]pyrazine-1-carboxamide]
Rat CB2 receptor (rCB2)
  +/− RCB2: +
[1]
  EC50: > 10000 nM

## CNC(=O)[C@@H](NC(=O)c1nc(-c2ccccc2)n2c1CN(C)CC2)c1ccccc1 [Compound 207, (S)-7-methyl-N-(2-(methylamino)-2-oxo-1-phenylethyl)-3-phenyl-5,6,7,8-tetrahydroimidazo[1,5-a]pyrazine-1-carboxamide]
Rat CB2 receptor (rCB2)
  +/− RCB2: +
[1]
  EC50: > 10000 nM

## CN1CCn2c(-c3ccc(Cl)cc3F)nc(C(=O)Nc3ccc(S(N)(=O)=O)cc3)c2C1 [Compound 208, 3-(4-chloro-2-fluorophenyl)-7-methyl-N-(4-sulfamoylphenyl)-5,6,7,8-tetrahydroimidazo[1,5-a]pyrazine-1-carboxamide]
Rat CB2 receptor (rCB2)
  +/− RCB2: −
[1]
  EC50: > 10000 nM

## CN1CCn2c(-c3ccc(Cl)cc3F)nc(C(=O)NC3CCN(C(=O)OC(C)(C)C)CC3)c2C1 [Compound 209, tert-butyl 4-(3-(4-chloro-2-fluorophenyl)-7-methyl-5,6,7,8-tetrahydroimidazo[1,5-a]pyrazine-1-carboxamido)piperidine-1-carboxylate]
Rat CB2 receptor (rCB2)
  EC50: > 10000 nM
[1]
  EC50: > 10000 nM

## CN1CCn2c(-c3ccc(Cl)cc3F)nc(C(=O)N3CCN(C(=O)c4ccccc4)CC3)c2C1 [Compound 210, (4-benzoylpiperazin-1-yl)(3-(4-chloro-2-fluorophenyl)-7-methyl-5,6,7,8-tetrahydroimidazo[1,5-a]pyrazin-1-yl)methanone]
Rat CB2 receptor (rCB2); [2]
  EC50: > 10000 nM
[1]; [3]
  EC50: > 10000 nM

## CN1CCn2c(-c3ccc(Cl)cc3F)nc(C(=O)N3CCN(c4ncccn4)CC3)c2C1 [Compound 211, (3-(4-chloro-2-fluorophenyl)-7-methyl-5,6,7,8-tetrahydroimidazo[1,5-a]pyrazin-1-yl)(4-(pyrimidin-2-yl)piperazin-1-yl)methanone]
Rat CB2 receptor (rCB2); [2]
  EC50: > 10000 nM
[1]; [3]
  EC50: > 10000 nM

## CN1CCn2c(-c3ccc(Cl)cc3F)nc(C(=O)N3CCC(n4c(=O)[nH]c5cc(Cl)ccc54)CC3)c2C1 [Compound 212, 5-chloro-1-(1-(3-(4-chloro-2-fluorophenyl)-7-methyl-5,6,7,8-tetrahydroimidazo[1,5-a]pyrazine-1-carbonyl)piperidin-4-yl)-1H-benzo[d]imidazol-2(3H)-one]
Rat CB2 receptor (rCB2)
  +/− RCB2: −
[1]; [3]
  EC50: > 10000 nM

## CN1CCn2c(-c3ccc(Cl)cc3F)nc(C(=O)NC3CCN(S(C)(=O)=O)CC3)c2C1 [Compound 213, 3-(4-chloro-2-fluorophenyl)-7-methyl-N-(1-(methylsulfonyl)piperidin-4-yl)-5,6,7,8-tetrahydroimidazo[1,5-a]pyrazine-1-carboxamide]
Rat CB2 receptor (rCB2); [2]
  EC50: > 10000 nM
[1]; [3]
  EC50: > 10000 nM

## CN1CCn2c(-c3ccc(Cl)cc3F)nc(C(=O)N3CCC4(CC3)C(=O)NCN4c3ccccc3)c2C1 [Compound 214, 8-(3-(4-chloro-2-fluorophenyl)-7-methyl-5,6,7,8-tetrahydroimidazo[1,5-a]pyrazine-1-carbonyl)-1-phenyl-1,3,8-triazaspiro[4.5]decan-4-one]
Rat CB2 receptor (rCB2)
  +/− RCB2: −
[1]
  EC50: > 10000 nM

## CN1CCn2c(-c3ccc(Cl)cc3F)nc(C(=O)N3CCC(n4c(=O)[nH]c5ccccc54)CC3)c2C1 [Compound 215, 1-(1-(3-(4-chloro-2-fluorophenyl)-7-methyl-5,6,7,8-tetrahydroimidazo[1,5-a]pyrazine-1-carbonyl)piperidin-4-yl)-1H-benzo[d]imidazol-2(3H)-one]
Rat CB2 receptor (rCB2)
  +/− RCB2: −
[1]; [3]
  EC50: > 10000 nM

## CNC(=O)c1cccc(NC(=O)c2nc(-c3ccc(Cl)cc3F)n3c2CN(C)CC3)c1 [Compound 216, 3-(4-chloro-2-fluorophenyl)-7-methyl-N-(3-(methylcarbamoyl)phenyl)-5,6,7,8-tetrahydroimidazo[1,5-a]pyrazine-1-carboxamide]
Rat CB2 receptor (rCB2)
  +/− RCB2: −
[1]; [3]
  EC50: > 10000 nM

## CNC(=O)c1ccccc1NC(=O)c1nc(-c2ccc(Cl)cc2F)n2c1CN(C)CC2 [Compound 217]
Rat CB2 receptor (rCB2); [2]
  EC50: > 10000 nM
[1]; [3]
  EC50: > 10000 nM

## CNC(=O)c1ccc(NC(=O)c2nc(-c3ccc(Cl)cc3F)n3c2CN(C)CC3)cc1 [Compound 218]
Rat CB2 receptor (rCB2); [2]
  EC50: > 10000 nM
[1]; [3]
  EC50: > 10000 nM

## CN1CCn2c(-c3ccc(Cl)cc3F)nc(C(=O)Nc3ccc(S(=O)(=O)N4CCOCC4)cc3)c2C1 [Compound 219]
Rat CB2 receptor (rCB2)
  +/− RCB2: −
[1]; [3]
  EC50: > 10000 nM

## CN1CCn2c(-c3ccc(Cl)cc3F)nc(C(=O)N3CCC4(CCN(C)C4=O)CC3)c2C1 [Compound 221, 8-(3-(4-chloro-2-fluorophenyl)-7-methyl-5,6,7,8-tetrahydroimidazo[1,5-a]pyrazine-1-carbonyl)-2-methyl-2,8-diazaspiro[4.5]decan-1-one]
Rat CB2 receptor (rCB2)
  EC50: > 10000 nM
[1]
  EC50: > 10000 nM
